Patent US20210371827A1, “METHOD FOR PREPARING CANCER STEM CELL SPHEROIDS” (KOREA ADVANCED INSTITUTE OF SCIENCE AND TECHNOLOGY, priority 2018, published 2021)

What was measured:
Assay in all cases: Cell viability for doxorubicin (WST-1)
Type in all cases: cell-based, human
[1] = system: SKOV3-ssiCSC; conditions: various concentrations, 24 hours
Method: (§1) ssiCSC spheroids prepared from different kinds of cancer cells (SKOV3, MCF-7, Hep3B and SW480) were isolated using trypsin (TrypLE Express, Gibco), and the isolated cells were washed with D-PBS twice. The ssiCSC was plated on a 96-well plate (1×10^4 cells/well) and was cultured in a cell growth medium at 37° C. for 24 hours. Then, the medium was removed, and a new medium comprising various concentrations of doxorubicin was added to each well and cultured for 24 hours. Next, each well was washed with D-PBS and was replaced with a new cell growth medium of 100 μl, and then WST-1 cell proliferation reagent (Roche) of 10 μl was added and cultured for 4 hours. Then, the absorbance at 450 nm (standard wavelength, 600 nm) was measured using a microplate reader (Molecular Devices).
(§2) In addition, the drug resistance of ssiCSC for doxorubicin (DOX) known as an anticancer agent was confirmed. Specifically, ssiCSC spheroids prepared by culturing on the pV4D4 surface for 8 days were isolated to single cells, and the cell was cultured on the conventional TCP surface to a 2D single layer, and then DOX at various concentrations was treated for 24 hours. […] The SW480-ssiCSC maintained drug resistance when subcultured on the TCP surface twice, and through this, it can be seen that original cancer cells were transformed into CSC-like cells (FIG. 12c).

[2] = system: SW480-ssiCSC; conditions: various concentrations, 24 hours
Method: as §1, §2

[3] = system: ssiCSC (SKOV3, MCF-7, Hep3B and SW480); conditions: 50 μM, 24 hours; compared to the 2D control group
Method: as §1, §2

SMILES: COc1cccc2c1C(=O)c1c(O)c3c(c(O)c1C2=O)C[C@@](O)(C(=O)CO)C[C@@H]3O[C@H]1C[C@H](N)[C@H](O)[C@H](C)O1 [Dox, doxorubicin]
- drug resistance (cell viability) [1]: complete resistance
- drug resistance (cell viability) [2]: complete resistance
- drug resistance (cell viability) [3]: higher resistance
